Experiments:
Type in all cases: physicochemical
[1] = lambda max (Vis) of photochromic test square polymerizates, UV-Visible spectrophotometer; details: activated (colored) form in polymer test square (BPA 2EO DMA / poly(ethylene glycol) 600 dimethacrylate), 1.5×10^-3 molal
Protocol: (§1) Testing was done with the photochromic compounds prepared in Examples 1-14 in the following manner. A quantity of each photochromic compound, except Compounds 13A and 14, calculated to yield a 1.5×10^-3 molal solution was added to a flask containing 50 grams of a monomer blend of 4 parts ethoxylated bisphenol A dimethacrylate (BPA 2EO DMA), 1 part poly(ethylene glycol) 600 dimethacrylate, and 0.033 weight percent 2,2'-azobis(2-methyl propionitrile) (AIBN). Each photochromic compound was dissolved into the monomer blend by stirring and gentle heating. After a clear solution was obtained, it was poured into a flat sheet mold having the interior dimensions of 2.2 mm×6 inches (15.24 cm)×6 inches (15.24 cm). The mold was sealed and placed in a horizontal air flow, programmable oven programmed to increase the temperature from 40° C. to 95° C. over a 5 hour interval, hold the temperature at 95° C. for 3 hours, lower it to 60° C. over a 2 hour interval and then hold at 60° C. for 16 hours. After the mold was opened, the polymer sheet was cut using a diamond blade saw into 2 inch (5.1 centimeters) test squares.
The ΔOD/min, which represents the sensitivity of the photochromic compound's response to UV light, was measured over the first five (5) seconds of UV exposure, then expressed on a per minute basis. The saturation optical density (ΔOD@ Saturation) was taken under identical conditions as the ΔOD/min, except UV exposure was continued for 15 minutes. The lambda max (Vis) is the wavelength in nanometers (nm) in the visible spectrum at which the maximum absorption of the activated (colored) form of the photochromic compound in a test square occurs. The lambda max (Vis) wavelength was determined by testing the photochromic test square polymerizates of Part A in a Varian Cary 3 UV-Visible spectrophotometer. The Bleach Rate (T 1/2) is the time interval in seconds for the absorbance of the activated form of the photochromic compound in the test squares to reach one half the highest absorbance at room temperature (72° F., 22.2° C.) after removal of the source of activating light.

[2] = photochromic response of test squares on an optical bench (sensitivity, saturation, bleach rate); details: for ΔOD @ Saturation: UV exposure continued for 15 minutes; for ΔOD @ Saturation / Sensitivity ΔOD/min: 72° F. (22.2° C.); for Sensitivity ΔOD/min: first five (5) seconds of UV exposure, expressed per minute; for Bleach Rate T 1/2: time to one half the highest absorbance at room temperature (72° F., 22.2° C.) after removal of activating light
Protocol: as §1
The photochromic test squares prepared in Part A were tested for photochromic response on an optical bench. Prior to testing on the optical bench, the photochromic test squares were exposed to 365 nanometer ultraviolet light for about 15 minutes to activate the photochromic compounds and then placed in a 76° C. oven for about 15 minutes to bleach or inactivate the photochromic compounds. The test squares were then cooled to room temperature, exposed to fluorescent room lighting for at least 2 hours and then kept covered for at least 2 hours prior to testing on an optical bench maintained at 72° F. (22.2° C.). The bench was fitted with a 150 watt Xenon arc lamp, a remote controlled shutter, a copper sulfate bath acting as a heat sink for the arc lamp, a Schott WG-320 nm cut-off filter which removes short wavelength radiation; neutral density filter(s) and a sample holder in which the square to be tested was inserted. The power output of the optical bench, i.e., the dosage of light that the sample lens would be exposed to, was calibrated with a photochromic test square used as a reference standard. […] The UV-A detector was placed into the sample holder and the light output was measured. Adjustments to the power output were made by increasing or decreasing the lamp wattage or by adding or removing neutral density filters in the light path.
A monitoring, collimated beam of light from a tungsten lamp was passed through the square at a small angle (approximately 30°) normal to the square. After passing through the square, the light from the tungsten lamp was directed to a detector through Spectral Energy Corp. GM-200 monochromator set at the previously determined visible lambda max of the photochromic compound being measured. The output signals from the detector were processed by a radiometer.
Change in optical density (ΔOD) was determined by inserting a test square in the bleached state into the sample holder, adjusting the transmittance scale to 100%, opening the shutter from the Xenon lamp to provide ultraviolet radiation to change the test square from the bleached state to an activated (i.e., darkened) state, measuring the transmittance in the activated state, and calculating the change in optical density according to the formula: ΔOD=log(100/% Ta), where % Ta is the percent transmittance in the activated state and the logarithm is to the base 10.
The ΔOD/min, which represents the sensitivity of the photochromic compound's response to UV light, was measured over the first five (5) seconds of UV exposure, then expressed on a per minute basis. The saturation optical density (ΔOD@ Saturation) was taken under identical conditions as the ΔOD/min, except UV exposure was continued for 15 minutes. […]

[3] = lambda max (Vis) of compound in solution, UV/Visible spectrophotometer; details: solution in diethylene glycol dimethyl ether, approximately 0.5 milligram per milliliter
Protocol: The compound of Example 13 identified as 13A and the compound of Example 14 were dissolved in diethylene glycol dimethyl ether. The concentration of the resulting solution was approximately 0.5 milligram per milliliter. Each solution was tested in a UV/Visible Spectrophotometer to determine the lambda max (Vis).

| Compound | lambda max (Vis) [1] [nanometers] | ΔOD @ Saturation [2] | Sensitivity ΔOD/min [2] | Bleach Rate T 1/2 [2] [min] | lambda max (Vis) [3] [nanometers] |
| --- | --- | --- | --- | --- | --- |
| O=C1OCOc2c1c1c(c3ccccc23)OC(c2ccccc2)(c2ccccc2)C=C1 [Example 1, 7,7-diphenyl-4-oxo-4H-7H-[1,3]dioxino[5'4':3,4]naphtho[1,2-b]pyran] | 472 | 1.89 | 0.76 ΔOD/min | 3.67 |  |
| COc1ccc(C2(c3ccc(OC)cc3)C=Cc3c4c(c5ccccc5c3O2)OCOC4=O)cc1 [Example 2, 7,7-di(4-methoxyphenyl)-4-oxo-4H-7H-[1,3]dioxino[5',4':3,4]naphtho[1,2-b]pyran] | 510 | 0.67 | 0.74 ΔOD/min | 0.85 |  |
| CCCCCC1OC(=O)c2c3c(c4ccccc4c2O1)OC(c1ccccc1)(c1ccc(OC)cc1)C=C3 (centres unmarked) [Example 3, 7-(4-methoxyphenyl)-7-phenyl-2-pentyl-4-oxo-4H-7H-[1,3]dioxino[5',4':3,4]naphtho[1,2-b]pyran] | 496 | 1.28 | 0.75 ΔOD/min | 1.95 |  |
| CCC1OC(=O)c2c3c(c4ccccc4c2O1)OC(c1ccccc1)(c1ccccc1)C=C3 (centres unmarked) [Example 4, 7,7-diphenyl-2-ethyl-4-oxo-4H-7H-[1,3]dioxino[5',4':3,4]naphtho[1,2-b]pyran] | 474 | 1.71 | 0.67 ΔOD/min | 4.13 |  |
| CCCCCC1OC(=O)c2c3c(c4ccccc4c2O1)OC(c1ccccc1)(c1ccccc1)C=C3 (centres unmarked) [Example 5, 7,7-diphenyl-2-pentyl-4-oxo-4H-7H-[1,3]dioxino[5',4':3,4]naphtho[1,2-b]pyran] | 478 | 1.74 | 0.67 ΔOD/min | 4.23 |  |
| CC(C)CC1OC(=O)c2c3c(c4ccccc4c2O1)OC(c1ccccc1)(c1ccccc1)C=C3 (centres unmarked) [Example 6, 7,7-diphenyl-2-(2-methylpropyl)-4-oxo-4H-7H-[1,3]dioxino[5',4':3,4]naphtho[1,2-b]pyran] | 475 | 1.72 | 0.64 ΔOD/min | 4 |  |
| O=C1OC(c2ccccc2)Oc2c1c1c(c3ccccc23)OC(c2ccccc2)(c2ccccc2)C=C1 (centres unmarked) [Example 7, 2,7,7-triphenyl-4-oxo-4H-7H-[1,3]dioxino[5',4':3,4]naphtho[1,2-b]pyran] | 476 | 1.46 | 0.60 ΔOD/min | 4.13 |  |
| CC(c1ccccc1)C1OC(=O)c2c3c(c4ccccc4c2O1)OC(c1ccccc1)(c1ccccc1)C=C3 (centres unmarked) [Example 8, 7,7-diphenyl-2-(1-phenylethyl)-4-oxo-4H-7H-[1,3]dioxino[5',4':3,4]naphtho[1,2-b]pyran] | 475 | 1.58 | 0.63 ΔOD/min | 4.18 |  |
| Cn1c(=O)oc2c(c3c(c4ccccc42)OC(c2ccccc2)(c2ccccc2)C=C3)c1=O [Example 9, 3-methyl-7,7-diphenyl-2,4-dioxo-2,3,4,7-tetrahydro[1,3]oxazino[5',6':3,4]naphtho[1,2-b]pyran] | 469 | 0.40 | 0.41 ΔOD/min | 0.85 |  |
| CCOC(=O)CCn1c(=O)oc2c(c3c(c4ccccc42)OC(c2ccccc2)(c2ccccc2)C=C3)c1=O [Example 10, 3-(2-ethoxycarbonylethyl)-7,7-diphenyl-2,4-dioxo-2,3,4,7-tetrahydro[1,3]oxazino[5',6':3,4]naphtho[1,2-b]pyran] | 468 | 0.38 | 0.44 ΔOD/min | 0.7 |  |
| CCCCCCn1c(=O)oc2c(c3c(c4ccccc42)OC(c2ccccc2)(c2ccccc2)C=C3)c1=O [Example 11, 3-hexyl-7,7-diphenyl-2,4-dioxo-2,3,4,7-tetrahydro[1,3]oxazino[5',6':3,4]naphtho[1,2-b]pyran] | 471 | 0.41 | 0.46 ΔOD/min | 0.883 |  |
| C=C(C)C(=O)OCCn1c(=O)oc2c(c3c(c4ccccc42)OC(c2ccccc2)(c2ccccc2)C=C3)c1=O [Example 12, 3-(2-methacryloyloxyethyl)-7,7-diphenyl-2,4-dioxo-2,3,4,7-tetrahydro[1,3]oxazino[5',6':3,4]naphtho[1,2-b]pyran] | 467 | 0.32 | 0.26 ΔOD/min | 2.33 |  |
| O=C1OC(c2ccccc2)(c2ccccc2)Nc2c1c1c(c3ccccc23)OC(c2ccccc2)(c2ccccc2)C=C1 [Example 13A, 2,2,7,7-tetraphenyl-4-oxo-2,3,4,7-tetrahydro-1H-[1,3]oxazino[5',4':3,4]naphtho[1,2-b]pyran] |  |  |  |  | 471 |
| CC1(C)Cc2c(c3c(c4ccccc24)OC(c2ccccc2)(c2ccccc2)C=C3)C(=O)O1 [Example 14] |  |  |  |  | 460 |
